Test results from article PMC9127750, “Structure-based design of CDC42 effector interaction inhibitors for the treatment of cancer” (Cell reports, 2022).
Several values for one entry are separate records, joined by “and”; a condition that tells them apart may be missing. Identical values can stand only once.

Test system: WM3248 melanoma cells, 486 antibodies
Assay: Reverse phase protein arrays (RPPA)
Format: cell-based, Human
Source text: Pellets were snap frozen in liquid nitrogen and shipped to MD Anderson Cancer Center core RPPA facility for RPPA analysis (Table S5). Three biological replicates for each sample were generated.
Nomenclatures on the RPPA heatmaps: name_of_antibody.species_of_antibody.status_of_antibody. V - antibody validated; C - validation of antibody in progress; Q - antibody nonspecific; E – under evaluation; antibodies raised in M - mouse, G - goat, R - rabbit, or T - rat.

[1] = Norm_5, replicates 1-3 and Average, relative to Norm_0

SMILES: CN(C)c1cccc(Nc2cc(-c3ccccc3)nc(C3CCNCC3)n2)c1 [ARN22089, N1,N1-dimethyl-N3-(6-phenyl-2-(piperidin-4-yl)pyrimidin-4-yl)benzene-1,3-diamine]
- ATRX.R.C RPPA signal, normalized [1]: 0.868 and 1.119 and 1.361 and 1.116
- ATR_pS428.R.C RPPA signal, normalized [1]: 1.018 and 1.013 and 1.046 and 1.026
- AceCS1.R.V RPPA signal, normalized [1]: 1.085 and 0.933 and 1.019
- Akt1.R.V RPPA signal, normalized [1]: 0.915 and 0.974 and 0.812 and 0.900
- Akt1_pS473.R.V RPPA signal, normalized [1]: 1.006 and 0.879 and 0.961
- Akt2.R.V RPPA signal, normalized [1]: 0.917 (2×) and 0.925 and 0.908
- Akt2_pS474.R.C RPPA signal, normalized [1]: 1.056 and 1.115
- Akt.R.V RPPA signal, normalized [1]: 0.986 and 0.968 and 1.009
- Akt_pS473.R.V RPPA signal, normalized [1]: 2.087 and 1.212 and 1.121 and 1.473
- Akt_pT308.R.V RPPA signal, normalized [1]: 1.212 and 0.937 and 1.110
- Ambra1_pS52.R.C RPPA signal, normalized [1]: 0.888 and 0.910 and 0.903 and 0.900
- Annexin.I.M.V RPPA signal, normalized [1]: 0.981 and 1.012 and 1.278
- Annexin.VII.M.V RPPA signal, normalized [1]: 1.019 and 0.975 and 0.977 and 0.990
- Atg3.R.V RPPA signal, normalized [1]: 1.081 and 0.975 and 1.056
- Atg4B.R.C RPPA signal, normalized [1]: 1.096 and 1.370 and 1.167
- Atg5.R.C RPPA signal, normalized [1]: 1.011 and 1.078 and 1.020
- Atg7.R.V RPPA signal, normalized [1]: 1.022 and 1.027
- Aurora.A.R.C RPPA signal, normalized [1]: 0.652 and 0.973 and 0.927 and 0.851
- Aurora.ABC_pT288_pT232_pT198.R.C RPPA signal, normalized [1]: 0.793 and 0.871 and 0.899 and 0.855
- Aurora.B.R.V RPPA signal, normalized [1]: 0.896 and 1.084 and 0.923 and 0.968
- Axl.R.V RPPA signal, normalized [1]: 0.968 and 1.169 and 1.152 and 1.097
- B7.H3.R.C RPPA signal, normalized [1]: 1.106 and 0.952 and 0.992 and 1.017
- B7.H4.R.C RPPA signal, normalized [1]: 1.026 and 0.982 and 1.007 and 1.005
- B.Raf.R.C RPPA signal, normalized [1]: 1.062 and 1.061
- B.Raf_pS445.R.V RPPA signal, normalized [1]: 1.018 and 1.017 and 1.057 and 1.031
- BAP1.M.V RPPA signal, normalized [1]: 0.935 and 0.995 and 0.932 and 0.954
- BCL2A1.R.V RPPA signal, normalized [1]: 1.271 and 0.801 and 1.003
- BMK1.Erk5_pT218_Y220.R.V RPPA signal, normalized [1]: 0.965 and 0.943 and 0.924
- BRCA1.M.C RPPA signal, normalized [1]: 0.876 and 0.959 and 0.998 and 0.944
- BRD4.R.V RPPA signal, normalized [1]: 1.085 and 1.161 and 1.113
- Bad_pS112.R.V RPPA signal, normalized [1]: 1.029 and 1.014 and 1.062 and 1.035
- Bak.R.C RPPA signal, normalized [1]: 1.012 and 1.001 and 1.061 and 1.025
- Bax.R.V RPPA signal, normalized [1]: 1.015 and 1.032 and 0.955 and 1.001
- Bcl2.R.C RPPA signal, normalized [1]: 0.966 and 1.014 and 0.939 and 0.973
- Bcl.xL.R.V RPPA signal, normalized [1]: 1.144 and 0.772 and 0.984
- Beclin.R.C RPPA signal, normalized [1]: 0.940 and 1.010 and 0.868 and 0.939
- BiP.GRP78.M.C RPPA signal, normalized [1]: 0.904 and 0.981 and 0.932 and 0.939
- Bid.R.C RPPA signal, normalized [1]: 1.008 and 0.999 and 1.060 and 1.022
- Bim.R.V RPPA signal, normalized [1]: 0.866 and 0.980 and 0.919
- X4E.BP1.R.V RPPA signal, normalized [1]: 0.986 and 1.022 and 1.747 and 1.252
- X4E.BP1_pS65.R.V RPPA signal, normalized [1]: 1.142 and 1.063 and 0.945 and 1.050
- X4E.BP1_pT37_T46.R.V RPPA signal, normalized [1]: 1.104 and 1.054 (2×)
- X14.3.3.zeta.R.V RPPA signal, normalized [1]: 0.999 and 1.014
- X14.3.3βR.V RPPA signal, normalized [1]: 0.972 and 0.950 and 1.017 and 0.980
- X14.3.3εM.C RPPA signal, normalized [1]: 0.936 and 0.999 and 0.976 and 0.971
- X53BP1.R.V RPPA signal, normalized [1]: 0.978 and 0.924 and 0.982
- b.Actin.R.C RPPA signal, normalized [1]: 0.918 and 0.939 and 0.975
- b.Catenin.R.V RPPA signal, normalized [1]: 0.994 and 0.895 and 0.845
- b.Catenin_pT41_S45.R.V RPPA signal, normalized [1]: 1.007 and 0.992 and 1.022
- c.Abl.R.V RPPA signal, normalized [1]: 1.034 and 1.085 and 1.017
- c.Abl_pY412.R.C RPPA signal, normalized [1]: 0.992 and 0.994 and 1.009
- c.IAP2.R.C RPPA signal, normalized [1]: 1.048 and 1.023
- C.Raf.R.C normalized signal (Norm_5 Average): 0.955
- C.Raf_pS338.R.V normalized signal (Norm_5 Average): 1.097
- CA9.R.C normalized signal (Norm_5 Average): 0.944
- CD2.M.C normalized signal (Norm_5 Average): 0.959
- CD4.R.V normalized signal (Norm_5 Average): 1.051
- CD5.M.C normalized signal (Norm_5 Average): 0.995
- CD20.R.C normalized signal (Norm_5 Average): 0.920
- CD26.R.V normalized signal (Norm_5 Average): 0.984
- CD29.M.V normalized signal (Norm_5 Average): 0.963
- CD38.R.C normalized signal (Norm_5 Average): 1.035
- CD44.R.C normalized signal (Norm_5 Average): 0.944
- CD45.M.V normalized signal (Norm_5 Average): 0.967
- CD49b.M.V normalized signal (Norm_5 Average): 0.979
- CD68.M.C normalized signal (Norm_5 Average): 0.978
- CD74.M.V normalized signal (Norm_5 Average): 0.927
- CD134.R.V normalized signal (Norm_5 Average): 0.971
- CD171.M.V normalized signal (Norm_5 Average): 0.783
- CDK9.R.V normalized signal (Norm_5 Average): 0.955
- CDKN2A.R.C normalized signal (Norm_5 Average): 0.941
- CDT1.R.V normalized signal (Norm_5 Average): 0.908
- CENP.A.R.V normalized signal (Norm_5 Average): 0.910
- CHD1L.R.V normalized signal (Norm_5 Average): 1.009
- COG3.R.V normalized signal (Norm_5 Average): 1.046
- CRABP1.R.C normalized signal (Norm_5 Average): 0.948
- CRABP2.R.V normalized signal (Norm_5 Average): 0.874
- CSK.R.C normalized signal (Norm_5 Average): 0.850
- Calnexin.R.V normalized signal (Norm_5 Average): 0.963
- Caspase.3.cleaved.R.C normalized signal (Norm_5 Average): 1.016
- Caspase.7.cleaved..R.C normalized signal (Norm_5 Average): 1.054
- Caspase.8.M.Q normalized signal (Norm_5 Average): 0.985
